Experiments:
[1] = test system: COX enzymes (D122 mouse Lewis lung carcinoma cells); assay: COX inhibition, PGE2 production in D122 cells; format: cell-based; details: average of two experiments in triplicate
Text: In addition, the aromatic rings of the diphenylamine moiety were substituted with different electron donating or withdrawing groups. In a first screen, two parameters were checked: (a) the non-selective inhibition of COX-1/COX-2 enzyme activities, measured by the production of PGE2 in cultured mouse colon adenocarcinoma (CT26) and mouse Lewis lung carcinoma cells (D122) cells; (b) the M-channel activity, measured by the heterologous coexpression of Kv7.2 and Kv7.3 subunits in Chinese hamster ovary (CHO) cells.
Mouse colon adenocarcinoma CT26 and mouse Lewis lung carcinoma D122 cells were grown in DMEM (D122) or RPMI (CT26) supplemented with 10% fetal calf serum, 4% glutamine, 1% penicillin-streptomycin-nystatin and 3% non essential amino acids (D122) and maintained in a humidified 37°C incubator with 5% CO2. For the COX assays, cells were grown onto 24 multiwell plates. Before the assay, cells were washed with serum-free medium; then tested compounds were added to the medium and incubated for 30 min at 37°C after which 30 µM arachidonic acid was added and incubated for additional 20 min. At the end of the incubations, 10 µM indomethacin was added to stop the reaction and medium was transferred to another 24 multiwell plate for measuring PGE2 production by radioimmunoassay (DuPont-NEN; Boston, MA) according to manufacturer protocol. Protein determination was assayed on scraped cells and was used to normalize the amount of PGE2 production. Assays with purified ovine COX-1 and human recombinant COX-2 were performed using the COX inhibitor screening assay (Cayman chemical company, Ann Arbor, MI), according to manufacturer protocol.

rat DRG neurons = assay: Current-clamp recording of cultured DRG neurons; format: cell-based; details: 25 µM
Description: For dorsal root ganglion (DRG) neuronal cultures, ganglia were dissected from 2–5 day-old Sprague-Dawley rats killed by decapitation. DRGs were placed in Hank's balanced saline solution (HBSS) and prepared by enzymatic dissociation. Briefly, after 30 min incubation in 5 mg/ml dispase, 2 mg/ml collagenase type 1A and 0.1 mg/ml DNase (Invitrogen/Gibco, Carlsbad, CA) in Ca^2+ and Mg^2+-free HBSS, the ganglia were mechanically triturated with a fire-polished glass Pasteur pipette. The ganglia were then centrifuged for 5 min at 80xg and resuspended in DMEM supplemented with 2 mM L-glutamine, 16.5 mM NaHCO3, 6 g/l glucose, 5 ml penicillin/streptomycin and 10% fetal calf serum. For electrophysiological recording, dissociated neurons were plated on 13 mm glass coverslips, previously coated with poly-D-lysine (1 mg/ml) and laminin (10 µg/ml) and used at 1–2 days in culture.
For current-clamp recordings in primary cultured neurons, the patch pipettes were filled with (in mM): 135 KCl, 1 K2ATP, 1 MgATP, 2 EGTA, 1.1 CaCl2, 5 glucose, 10 HEPES, adjusted with KOH at pH 7.4 (315 mOsm). The external solution contained (in mM): 150 NaCl, 2.5 KCl, 2 CaCl2, 2 MgCl2, 15 glucose, 10 HEPES, adjusted with NaOH at pH 7.4 (325 mOsm). Recordings were sampled at 5 kHz and filtered at 2 KHz via a 4-pole Bessel low pass filter. A liquid junction potential of about −15.6 mV was measured between the intracellular and saline solutions and corrected on-line. For evoking spike discharges, 75–200 pA square depolarizing current pulses were injected into neurons for 400 ms. For rheobase current measurements, 100–1100 pA square depolarizing current pulses were injected into neurons for 2 ms.

[2] = test system: MES-induced tonic hind limb extension; assay: Maximal electroshock seizure (MES) model; format: in vivo, mouse; details: Mus musculus, ip; mice, intraperitoneal, 30 min before electroshock (0.2 sec, 50 mA); read-out: ED50, protection against tonic extension caused by MES
Description: This test is generally thought to be a model of generalized tonic-clonic seizure in human.
The anti-convulsant effect was measured by the maximal electroshock seizure model (MES) in ICR mice as previously described. The procedures followed for experimentation and maintenance of the animals were approved by the animal research ethics committee of Tel Aviv University and in accordance with the Guide for the Care and Use of Laboratory Animals (1996, National Academy of Sciences, Washington DC). Briefly, maximal electroshock was induced in adult mice by means of two transcorneal electrodes delivering an alternative current of 50 mA at 60 Hz for 0.2 sec using rodent shocker (Hugo Sachs Electronik, type 221). […] The drugs dissolved in 0.9% saline were administered intraperitoneally 30 min before the electroshock was performed. Animals failing to show tonic hind limb extension were scored as protected and were expressed in percentage.

## O=C(Cc1cc([N+](=O)[O-])ccc1Nc1c(Cl)cccc1Cl)OCCO [Compound 15]
[1]
  IC50: 0.229 µM
Rat DRG neurons
  hyperpolarization of resting membrane potential, DRG neurons: −8.3±0.2 mV
  resting membrane potential of DRG neurons after exposure: −69.0±0.3 mV
Rat DRG neurons; 2 ms injection
  rheobase current to generate a single spike, DRG neurons: 577±38 pA
Rat DRG neurons; depolarizing current for 400 ms
  number of evoked action potentials, DRG neurons: 0.8±0.3
[2]
  ED50: 12 mg/kg

From article PMC2131780, “A Tale of Switched Functions: From Cyclooxygenase Inhibition to M-Channel Modulation in New Diphenylamine Derivatives” (PLoS ONE, 2007)
